16 compounds from the supplement of paper PMC11616607 can be followed below.

The test system of one assay is OVCAR4. Description: drug sensitivity score (DSS) from 5-point dose-response viability curve (DSS (area-under-curve based score)); higher = more sensitive (stronger growth inhibition or killing); extreme values may be limits of the assay. As to conditions: exposure time: 72 h; concentration range: 5 concentrations over 10,000-fold range. The method, boiled down:
(§1)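 Ovarian cancer and normal ovarian cell lines were tested in 384-well plates. Drugs were acoustically dispensed (Echo 550) in DMSO or water at five concentrations spanning a 10,000-fold range, then 1,500 cells per well were added and incubated 3 days at 37°C, 5% CO2. Viability was read by CellTiter-Glo luminescence on a PHERAstar FS. Drug sensitivity score was derived per cell line and drug with Breeze software; higher means more sensitive, zero means no response.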
For `CC(C)(C)c1cc(NC(=O)Nc2ccc(Oc3ccnc4[nH]c(=O)cnc34)cc2F)n(-c2ccccc2)n1`, the drug sensitivity score worked out at 2.8.
Compound `CCn1c(-c2nonc2N)nc2c(C#CC(C)(C)O)ncc(OC[C@H]3CCCNC3)c21` gave a drug sensitivity score of 0.
On the same count and under the same terms, in the case of `CCn1cc(-c2ccnc3[nH]c(-c4cccc(CN(C)C)c4)cc23)c(-c2ccc(NC(=O)N(C)C)cc2)n1` it was 2.9; in that of `CN1CCN(C2CCC(n3cc(-c4ccc(Oc5ccccc5)cc4)c4c(N)ncnc43)CC2)CC1` (configuration not stated), 7.6.
Still for that read-out and setting: for `CNC(=O)c1ccccc1Nc1nc(Nc2ccc3c(c2OC)CCC[C@H](N2CCN(CCO)CC2)C3)ncc1Cl` the value was 5.2; for `CNc1nc(-c2ccc3c(N)n[nH]c3c2)cc(N2C[C@@H](C(=O)NC3CCCCC3)CC[C@H]2C)n1`, 0.
Compound `CONC(=O)c1ccccc1Nc1cc(Nc2cc(C)nn2C(C)C)ncc1Cl` yielded a drug sensitivity score of 0.1.
Same read-out and setting: for `COc1cc2ncnc(Oc3cccc(NC(=O)Nc4cc(C(C)(C)C(F)(F)F)on4)c3)c2cc1OC` the value was 0.
For the compound `COc1ccc2[nH]cc(/C=C3\C(=O)Nc4ccc(NC(=O)CCN5CCCCC5)cc43)c2c1`, the drug sensitivity score turned out to be 4.9.
In turn, `C[C@@H](Oc1cc(-n2cnc3ccc(CN4CCN(C)CC4)cc32)sc1C(N)=O)c1ccccc1C(F)(F)F` returned a drug sensitivity score of 3.6.
Turning to `O=C(NC[C@H](O)CN1CCc2ccccc2C1)c1cc(NC2COC2)ncn1`, the drug sensitivity score is 2.
In turn, `O=C1Cc2cc(C(=O)NC3C[C@H]4CC[C@@H](C3)N4S(=O)(=O)CC3CCN(CCCC(F)(F)F)CC3)c(Cl)cc2N1` (some centres not stated) showed a drug sensitivity score of 0.
In the case of `CCN(CC)CCCC(C)Nc1ccnc2cc(Cl)ccc12` (configuration not stated) [Chloroquine], the drug sensitivity score was 6.2.
Compound `Nc1ccn([C@@H]2O[C@H](CO)[C@@H](O)[C@@H]2O)c(=O)n1` [Cytarabine] had a drug sensitivity score of 0.
Still for that read-out and setting: for `Cc1ccc(NC(=O)c2ccc(CN3CCN(C)CC3)cc2)cc1Nc1nccc(-c2cccnc2)n1` [Imatinib] the value was 0; for `CC[C@H](CO)Nc1nc(NCc2ccccc2)c2ncn(C(C)C)c2n1` [Seliciclib], 0.

For a further assay, the system named is JHOS2. The assay is described as above. The following applies: exposure time: 72 h; concentration range: 5 concentrations over 10,000-fold range. In outline:
as §1
`CC(C)(C)c1cc(NC(=O)Nc2ccc(Oc3ccnc4[nH]c(=O)cnc34)cc2F)n(-c2ccccc2)n1` returned a drug sensitivity score of 0.5.
As for `CCn1c(-c2nonc2N)nc2c(C#CC(C)(C)O)ncc(OC[C@H]3CCCNC3)c21`, the drug sensitivity score stood at 0.
Compound `CCn1cc(-c2ccnc3[nH]c(-c4cccc(CN(C)C)c4)cc23)c(-c2ccc(NC(=O)N(C)C)cc2)n1` registered a drug sensitivity score of 0.
Still for that read-out and setting: in the case of `CN1CCN(C2CCC(n3cc(-c4ccc(Oc5ccccc5)cc4)c4c(N)ncnc43)CC2)CC1` (configuration not stated) it was 7.1.
The same measure, in the same setting: in the case of `CNC(=O)c1ccccc1Nc1nc(Nc2ccc3c(c2OC)CCC[C@H](N2CCN(CCO)CC2)C3)ncc1Cl` it was 7.6; in that of `CNc1nc(-c2ccc3c(N)n[nH]c3c2)cc(N2C[C@@H](C(=O)NC3CCCCC3)CC[C@H]2C)n1`, 0.7; in that of `CONC(=O)c1ccccc1Nc1cc(Nc2cc(C)nn2C(C)C)ncc1Cl`, 0.1.
Turning to `COc1cc2ncnc(Oc3cccc(NC(=O)Nc4cc(C(C)(C)C(F)(F)F)on4)c3)c2cc1OC`, the drug sensitivity score stood at 1.5.
`COc1ccc2[nH]cc(/C=C3\C(=O)Nc4ccc(NC(=O)CCN5CCCCC5)cc43)c2c1` showed a drug sensitivity score of 5.
Still for that read-out and setting: for `C[C@@H](Oc1cc(-n2cnc3ccc(CN4CCN(C)CC4)cc32)sc1C(N)=O)c1ccccc1C(F)(F)F` the value was 15.3; for `O=C(NC[C@H](O)CN1CCc2ccccc2C1)c1cc(NC2COC2)ncn1`, 0.7; for `O=C1Cc2cc(C(=O)NC3C[C@H]4CC[C@@H](C3)N4S(=O)(=O)CC3CCN(CCCC(F)(F)F)CC3)c(Cl)cc2N1` (some centres not stated), 0.
For the compound `Nc1ccn([C@@H]2O[C@H](CO)[C@@H](O)[C@@H]2O)c(=O)n1` [Cytarabine], the drug sensitivity score was 8.6.
Same read-out and setting: for `Cc1ccc(NC(=O)c2ccc(CN3CCN(C)CC3)cc2)cc1Nc1nccc(-c2cccnc2)n1` [Imatinib] the value was 0.
`CC[C@H](CO)Nc1nc(NCc2ccccc2)c2ncn(C(C)C)c2n1` [Seliciclib] displayed a drug sensitivity score of 1.2.

A further assay relates to HOSE2C. The assay is described as above. As to conditions: exposure time: 72 h; concentration range: 5 concentrations over 10,000-fold range. The method, boiled down: as §1
Regarding `CC(C)(C)c1cc(NC(=O)Nc2ccc(Oc3ccnc4[nH]c(=O)cnc34)cc2F)n(-c2ccccc2)n1`, the drug sensitivity score amounted to 12.8.
As to `CCn1c(-c2nonc2N)nc2c(C#CC(C)(C)O)ncc(OC[C@H]3CCCNC3)c21`, the drug sensitivity score turned out to be 3.7.
The same measure, in the same setting: for `CCn1cc(-c2ccnc3[nH]c(-c4cccc(CN(C)C)c4)cc23)c(-c2ccc(NC(=O)N(C)C)cc2)n1` the value was 1.4; for `CN1CCN(C2CCC(n3cc(-c4ccc(Oc5ccccc5)cc4)c4c(N)ncnc43)CC2)CC1` (configuration not stated), 9.3.
`CNC(=O)c1ccccc1Nc1nc(Nc2ccc3c(c2OC)CCC[C@H](N2CCN(CCO)CC2)C3)ncc1Cl` came in with a drug sensitivity score of 8.4.
On to `CNc1nc(-c2ccc3c(N)n[nH]c3c2)cc(N2C[C@@H](C(=O)NC3CCCCC3)CC[C@H]2C)n1`, for which the drug sensitivity score came out at 2.6.
Compound `CONC(=O)c1ccccc1Nc1cc(Nc2cc(C)nn2C(C)C)ncc1Cl` returned a drug sensitivity score of 0.
`COc1cc2ncnc(Oc3cccc(NC(=O)Nc4cc(C(C)(C)C(F)(F)F)on4)c3)c2cc1OC`: the drug sensitivity score amounted to 0.
`COc1ccc2[nH]cc(/C=C3\C(=O)Nc4ccc(NC(=O)CCN5CCCCC5)cc43)c2c1` had a drug sensitivity score of 6.1.
`C[C@@H](Oc1cc(-n2cnc3ccc(CN4CCN(C)CC4)cc32)sc1C(N)=O)c1ccccc1C(F)(F)F` gave a drug sensitivity score of 10.1.
As to `O=C(NC[C@H](O)CN1CCc2ccccc2C1)c1cc(NC2COC2)ncn1`, the drug sensitivity score amounted to 0.
In turn, `O=C1Cc2cc(C(=O)NC3C[C@H]4CC[C@@H](C3)N4S(=O)(=O)CC3CCN(CCCC(F)(F)F)CC3)c(Cl)cc2N1` (some centres not stated) displayed a drug sensitivity score of 0.
As for `CCN(CC)CCCC(C)Nc1ccnc2cc(Cl)ccc12` (configuration not stated) [Chloroquine], the drug sensitivity score was found to be 7.2.
The compound `Nc1ccn([C@@H]2O[C@H](CO)[C@@H](O)[C@@H]2O)c(=O)n1` [Cytarabine] yielded a drug sensitivity score of 6.6.
Take `Cc1ccc(NC(=O)c2ccc(CN3CCN(C)CC3)cc2)cc1Nc1nccc(-c2cccnc2)n1` [Imatinib]: the drug sensitivity score was determined as 0.
For `CC[C@H](CO)Nc1nc(NCc2ccccc2)c2ncn(C(C)C)c2n1` [Seliciclib], the drug sensitivity score was 0.
